Patent publication US20090105217A1, “2-PHENYL-5-AMINO-1,3,4-OXADIAZOLES AND THEIR USE AS NICOTINIC ACETYLCHOLINE RECEPTOR LIGANDS” (priority 2007, published 2009)
Structures can show the parent of a compound that is named as a salt.

Molecular target: T1, human α7 nAChR (Homo sapiens, UniProt P36544)
T1 construct: host or cells: GH4C1 cells (pituitary tumor, immortalized cell line)
Experiment: α7 nAChR FLIPR (Fluorometric Imaging Plate Reader) Ca2+ assay, agonist EC50
Assay type: cell-based
Details: GH4C1 cells stably transfected with human α7 nAChR; Fluo-4 Ca2+ fluorescence; Examples 194 to 205 tested as the HCl salt; read-out: pEC50 value (negative logarithm of the agonist EC50) (converted)
Procedure, shortened: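 GH4C1 cells stably expressing human α7 nAChR, loaded with 2 μM Fluo-4 for 45–60 min at 37 °C in HEPES buffer pH 7.3 with 2 mM CaCl2 and 2.5 mM probenecid. Peak calcium fluorescence (ex 488, em 510–580 nm) after compound addition fitted for agonist EC50, reported as pEC50.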

T1 sequence (P36544 23-502): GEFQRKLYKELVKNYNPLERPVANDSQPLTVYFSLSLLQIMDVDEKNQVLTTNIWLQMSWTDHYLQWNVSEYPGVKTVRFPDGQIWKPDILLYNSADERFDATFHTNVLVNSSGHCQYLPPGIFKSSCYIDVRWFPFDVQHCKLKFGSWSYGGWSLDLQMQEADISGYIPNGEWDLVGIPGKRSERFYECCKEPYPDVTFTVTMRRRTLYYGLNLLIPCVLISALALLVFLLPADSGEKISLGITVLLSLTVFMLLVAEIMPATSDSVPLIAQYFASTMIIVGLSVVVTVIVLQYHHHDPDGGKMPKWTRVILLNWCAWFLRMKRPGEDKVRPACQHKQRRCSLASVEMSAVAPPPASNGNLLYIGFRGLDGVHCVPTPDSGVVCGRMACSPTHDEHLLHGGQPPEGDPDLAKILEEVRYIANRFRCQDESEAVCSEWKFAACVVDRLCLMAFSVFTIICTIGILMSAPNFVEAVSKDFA

Compound | EC50
O=C(Nc1ccc(-c2nnc(NCCCN3CCCC3)o2)c(F)c1)c1ccccc1 [Example 107, N-[3-fluoro-4-(5-{[3-(1-pyrrolidinyl)propyl]-amino}-1,3,4-oxadiazol-2-yl)phenyl]benzamide] | ≤ 1000 nM
COc1cc(NC(=O)c2ccccc2)ccc1-c1nnc(NCCCCN2CCCCC2)o1 [Example 32, N-[3-(methyloxy)-4-(5-{[4-(1-piperidinyl)butyl]amino}-1,3,4-oxadiazol-2-yl)phenyl]benzamide] | ≤ 100 nM
O=C(Nc1ccc(-c2nnc(NCCCCN3CCOCC3)o2)c(Cl)c1)c1ccccc1 [Example 102, N-[3-chloro-4-(5-{[4-(4-morpholinyl)butyl]amino}-1,3,4-oxadiazol-2-yl)phenyl]benzamide] | ≤ 100 nM
COc1cc(NC(=O)c2ccccc2)ccc1-c1nnc(NCCCCN2CCOCC2)o1 [Example 73, N-[3-(methyloxy)-4-(5-{[4-(4-morpholinyl)butyl]amino}-1,3,4-oxadiazol-2-yl)phenyl]benzamide] | ≤ 100 nM
CN(CCCNc1nnc(-c2ccc(NC(=O)c3ccccc3F)cc2)o1)C1CCCC1 [Example 137, N-{4-[5-({3-[cyclopentyl(methyl)amino]propyl}amino)-1,3,4-oxadiazol-2-yl]phenyl}-2-fluorobenzamide] | ≤ 1000 nM
CCN(CC)CCCCNc1nnc(-c2ccc(NC(=O)c3ccccc3)cc2OC)o1 [Example 75, N-[4-(5-{[4-(diethylamino)butyl]amino}-1,3,4-oxadiazol-2-yl)-3-(methyloxy)phenyl]benzamide] | ≤ 100 nM
O=C(Nc1ccc(-c2nnc(NCCCCN3CCCC3)o2)cc1)c1ccccc1 [Example 115, N-[4-(5-{[4-(1-pyrrolidinyl)butyl]amino}-1,3,4-oxadiazol-2-yl)phenyl]benzamide] | ≤ 100 nM
O=C(Nc1ccc(-c2nnc(NCCCCN3CCOCC3)o2)c(C(F)(F)F)c1)c1ccccc1F [Example 87, 2-fluoro-N-[4-(5-{[4-(4-morpholinyl)butyl]amino}-1,3,4-oxadiazol-2-yl)-3-(trifluoromethyl)phenyl]benzamide] | ≤ 1000 nM
O=C(Nc1ccc(-c2nnc(NCCCN3CCOCC3)o2)cc1)c1cccc(F)c1 [Example 195, 3-Fluoro-N-[4-(5-{[3-(4-morpholinyl)propyl]amino}-1,3,4-oxadiazol-2-yl)phenyl]benzamide] | ≤ 1000 nM
COc1cc(NC(=O)c2ccccc2F)ccc1-c1nnc(NCCCCN2CCCC2)o1 [Example 127, 2-fluoro-N-[3-(methyloxy)-4-(5-{[4-(1-pyrrolidinyl)butyl]amino}-1,3,4-oxadiazol-2-yl)phenyl]benzamide] | ≤ 100 nM
COc1cc(NC(=O)c2ccccc2)ccc1-c1nnc(NCCCN2CCCC2)o1 [Example 70, N-[3-(methyloxy)-4-(5-{[3-(1-pyrrolidinyl)propyl]amino}-1,3,4-oxadiazol-2-yl)phenyl]benzamide] | ≤ 1000 nM
O=C(Nc1ccc(-c2nnc(NCCCN3CCOCC3)o2)c(Cl)c1)c1ccccc1 [Example 101, N-[3-chloro-4-(5-{[3-(4-morpholinyl)propyl]amino}-1,3,4-oxadiazol-2-yl)phenyl]benzamide] | ≤ 1000 nM
COc1cc(NC(=O)C2CCCCC2)ccc1-c1nnc(NCCCN2CCCC2)o1 [Example 77, N-[3-(methyloxy)-4-(5-{[3-(1-pyrrolidinyl)propyl]amino}-1,3,4-oxadiazol-2-yl)phenyl]cyclohexanecarboxamide] | ≤ 1000 nM
CCN(CC)CCCCNc1nnc(-c2ccc(NC(=O)c3ccccc3)cc2C(F)(F)F)o1 [Example 96, N-[4-(5-{[4-(diethylamino)butyl]amino}-1,3,4-oxadiazol-2-yl)-3-(trifluoromethyl)phenyl]benzamide] | ≤ 100 nM
O=C(Nc1ccc(-c2nnc(NCCCCN3CCOCC3)o2)cc1)c1ccccc1 [Example 116, N-[4-(5-{[4-(4-morpholinyl)butyl]amino}-1,3,4-oxadiazol-2-yl)phenyl]benzamide] | ≤ 1000 nM
COc1cc(NC(=O)c2c(F)cccc2F)ccc1-c1nnc(NCCCN2CCOCC2)o1 [Example 226, 2,6-difluoro-N-[3-(methyloxy)-4-(5-{[3-(4-morpholinyl)propyl]amino}-1,3,4-oxadiazol-2-yl)phenyl]benzamidetrifluoroacetate] | ≤ 1000 nM
O=C(Nc1ccc(-c2nnc(NCCCN3CCCCC3)o2)cc1)c1ccc(Cl)cc1 [Example 18, 4-Chloro-N-[4-(5-{[3-(1-piperidinyl)propyl]amino}-1,3,4-oxadiazol-2-yl)phenyl]benzamidehydrochloride] | ≤ 1000 nM
CCN(CC)CCCNc1nnc(-c2ccc(NC(=O)c3ccccc3F)cc2OC)o1 [Example 2, N-[4-(5-{[3-(Diethylamino)propyl]amino}-1,3,4-oxadiazol-2-yl)-3-(methyloxy)phenyl]-2-fluorobenzamidehydrochloride] | ≤ 1000 nM

Compound | EC50
CCN(CC)CCCNc1nnc(-c2ccc(NC(=O)c3ccccc3F)cc2C(F)(F)F)o1 [Example 88, N-[4-(5-{[3-(diethylamino)propyl]amino}-1,3,4-oxadiazol-2-yl)-3-(trifluoromethyl)phenyl]-2-fluorobenzamide] | ≤ 1000 nM
CCN(CC)CCCNc1nnc(-c2ccc(NC(=O)c3ccccc3)cc2OC)o1 [Example 74, N-[4-(5-{[3-(diethylamino)propyl]amino}-1,3,4-oxadiazol-2-yl)-3-(methyloxy)phenyl]benzamide] | ≤ 1000 nM
O=C(Nc1ccc(-c2nnc(NCCCCN3CCOCC3)o2)c(C(F)(F)F)c1)C1CCCCC1 [Example 66, N-[4-(5-{[4-(4-morpholinyl)butyl]amino}-1,3,4-oxadiazol-2-yl)-3-(trifluoromethyl)phenyl]cyclohexanecarboxamide] | ≤ 1000 nM
O=C(Nc1ccc(-c2nnc(NCCCN3CCCC3)o2)c(C(F)(F)F)c1)C1CCCCC1 [Example 63, N-[4-(5-{[3-(1-pyrrolidinyl)propyl]amino}-1,3,4-oxadiazol-2-yl)-3-(trifluoromethyl)phenyl]cyclohexanecarboxamide] | ≤ 1000 nM
O=C(Nc1ccc(-c2nnc(NCCCN3CCCC3)o2)c(C(F)(F)F)c1)c1ccccc1F [Example 84, 2-fluoro-N-[4-(5-{[3-(1-pyrrolidinyl)propyl]amino}-1,3,4-oxadiazol-2-yl)-3-(trifluoromethyl)phenyl]benzamide] | ≤ 1000 nM
O=C(Nc1ccc(-c2nnc(NCCCCN3CCCC3)o2)cc1)C1CCCCC1 [Example 147, N-[4-(5-{[4-(1-pyrrolidinyl)butyl]amino}-1,3,4-oxadiazol-2-yl)phenyl]cyclohexanecarboxamide] | ≤ 100 nM
CCc1cc(NC(=O)c2ccccc2F)ccc1-c1nnc(NCCCCN2CCCC2)o1 [Example 170, N-[3-ethyl-4-(5-{[4-(1-pyrrolidinyl)butyl]amino}-1,3,4-oxadiazol-2-yl)phenyl]-2-fluorobenzamide] | ≤ 100 nM
CCN(CC)CCCNc1nnc(-c2ccc(NC(=O)C3CCCCC3)cc2OC)o1 [Example 81, N-[4-(5-{[3-(diethylamino)propyl]amino}-1,3,4-oxadiazol-2-yl)-3-(methyloxy)phenyl]cyclohexanecarboxamide] | ≤ 1000 nM
O=C(Nc1ccc(-c2nnc(NCCCCN3CCOCC3)o2)cc1)C1CCCCC1 [Example 148, N-[4-(5-{[4-(4-morpholinyl)butyl]amino}-1,3,4-oxadiazol-2-yl)phenyl]cyclohexanecarboxamide] | ≤ 1000 nM
O=C(Nc1ccc(-c2nnc(NCCCN3CCCCC3)o2)c(Cl)c1)c1ccccc1 [Example 105, N-[3-chloro-4-(5-{[3-(1-piperidinyl)propyl]amino}-1,3,4-oxadiazol-2-yl)phenyl]benzamide] | ≤ 1000 nM
O=C(Nc1ccc(-c2nnc(NCCCN3CCCC3)o2)cc1)c1ccccc1 [Example 69, N-[4-(5-{[3-(1-pyrrolidinyl)propyl]amino}-1,3,4-oxadiazol-2-yl)phenyl]benzamide] | ≤ 1000 nM
Cc1ccc(C(=O)Nc2ccc(-c3nnc(NCCCN4CCCCC4)o3)cc2)cc1 [Example 181, 4-methyl-N-[4-(5-{[3-(1-piperidinyl)propyl]amino}-1,3,4-oxadiazol-2-yl)phenyl]benzamide] | ≤ 1000 nM
CCN(CC)CCCCNc1nnc(-c2ccc(NC(=O)C3CCCCC3)cc2)o1 [Example 150, N-[4-(5-{[4-(diethylamino)butyl]amino}-1,3,4-oxadiazol-2-yl)phenyl]cyclohexanecarboxamide] | ≤ 1000 nM
O=C(Nc1ccc(-c2nnc(NCCCN3CCCC3)o2)c(Cl)c1)c1ccccc1 [Example 99] | ≤ 1000 nM
O=C(Nc1ccc(-c2nnc(NCCCCN3CCCC3)o2)c(F)c1)c1ccccc1F [Example 48, 2-fluoro-N-[3-fluoro-4-(5-{[4-(1-pyrrolidinyl)butyl]amino}-1,3,4-oxadiazol-2-yl)phenyl]benzamide] | ≤ 100 nM
COc1cc(NC(=O)c2ccccc2F)ccc1-c1nnc(NCCCN2CCN3CCC2CC3)o1 [Example 120, N-[4-(5-{[3-(1,4-diazabicyclo[3.2.2]non-4-yl)propyl]amino}-1,3,4-oxadiazol-2-yl)-3-(methyloxy)phenyl]-2-fluorobenzamide] | ≤ 100 nM
O=C(Nc1ccc(-c2nnc(NCCCCN3CCOCC3)o2)c(C(F)(F)F)c1)c1ccccc1 [Example 94, N-[4-(5-{[4-(4-morpholinyl)butyl]amino}-1,3,4-oxadiazol-2-yl)-3-(trifluoromethyl)phenyl]benzamide] | ≤ 100 nM
CN1CCCN(CCCNc2nnc(-c3ccc(NC(=O)c4ccccc4F)cc3)o2)CC1 [Example 174, 2-fluoro-N-[4-(5-{[3-(4-methylhexahydro-1H-1,4-diazepin-1-yl)propyl]amino}-1,3,4-oxadiazol-2-yl)phenyl]benzamide] | ≤ 1000 nM

Same assay, conditions: alpha 7 assay described in the Examples

Compound | activity in the alpha 7 assay
CCCN(CCC)CCCNc1nnc(-c2ccc(NC(=O)c3ccccc3F)cc2)o1 [N-[4-(5-{[3-(dipropylamino)propyl]amino}-1,3,4-oxadiazol-2-yl)phenyl]-2-fluorobenzamide] | not found to have activity
